Measurements reported in US20180303928A1 (priority 2017, published 2018).

Tests used:
Assay type in all cases: biochemical, influenza A(H7N2) virus
[1] = tested on: NA enzymatic activity of A/feline/NY/16
[2] = tested on: NA enzymatic activity of A/chicken/NY/99
[3] = tested on: NA of the H7N2 viruses

SMILES | Sensitivity to NA inhibitors (50% inhibitory concentration (IC50) of the NA enzymatic activity) [1] | Sensitivity to NA inhibitors (50% inhibitory concentration (IC50) of the NA enzymatic activity) [2] | Susceptibility of the H7N2 viruses to NA inhibitors [3]
[H]/N=C(\N)N[C@H]1C=C(C(=O)O)O[C@@H]([C@H](OC)[C@H](O)CO)[C@@H]1NC(C)=O [laninamivir] | sensitive | sensitive | susceptible
CCOC(=O)C1=C[C@@H](OC(CC)CC)[C@H](NC(C)=O)[C@@H](N)C1 [oseltamivir] | sensitive | sensitive | susceptible
CCC(CC)[C@H](NC(C)=O)[C@@H]1[C@H](O)[C@@H](C(=O)O)C[C@H]1N=C(N)N [peramivir] | – | – | susceptible
CC(=O)N[C@H]1[C@H]([C@H](O)[C@H](O)CO)OC(C(=O)O)=C[C@@H]1N=C(N)N [zanamivir] | sensitive | sensitive | susceptible
